From patent US5166066A (priority 1991, dated 1992)

Experiments:
[1] = test system: recombinant receptors composed of α6 -, β2 - and β2-subunits; details: transiently expressed in cultured mammalian cells; cited from earlier work
[2] = test system: α1 - and β1 -subunits of the bovine brain GABAA receptor; details: CHO cells, dexamethasone-inducible promoter; cited from earlier work
[3] = target: T1, GABAA receptor-Cl- channel complex composed of rat α1, β2, γ2 subunits (Rattus norvegicus, UniProt P18508+P62813+P63138); experiment: whole-cell patch clamp of GABA-mediated Cl- currents in transfected HEK 293 cells; format: cell-based; details: cell line 2C-1C, HEK 293, holding potential -60 mV
T1 construct: expressed in transfected cells
T1 sequence (P62813 28-455): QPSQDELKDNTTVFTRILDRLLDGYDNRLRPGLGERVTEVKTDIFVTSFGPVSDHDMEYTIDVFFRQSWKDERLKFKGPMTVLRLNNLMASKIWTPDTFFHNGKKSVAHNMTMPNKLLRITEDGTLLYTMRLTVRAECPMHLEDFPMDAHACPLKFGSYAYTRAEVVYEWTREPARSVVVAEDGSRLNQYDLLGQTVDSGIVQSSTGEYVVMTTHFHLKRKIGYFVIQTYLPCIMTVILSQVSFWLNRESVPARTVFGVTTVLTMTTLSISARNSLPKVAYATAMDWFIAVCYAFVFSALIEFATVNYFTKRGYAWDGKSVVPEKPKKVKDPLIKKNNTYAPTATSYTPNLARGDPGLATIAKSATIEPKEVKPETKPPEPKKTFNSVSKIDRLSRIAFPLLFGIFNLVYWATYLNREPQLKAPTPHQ
T1 sequence (P63138 26-474): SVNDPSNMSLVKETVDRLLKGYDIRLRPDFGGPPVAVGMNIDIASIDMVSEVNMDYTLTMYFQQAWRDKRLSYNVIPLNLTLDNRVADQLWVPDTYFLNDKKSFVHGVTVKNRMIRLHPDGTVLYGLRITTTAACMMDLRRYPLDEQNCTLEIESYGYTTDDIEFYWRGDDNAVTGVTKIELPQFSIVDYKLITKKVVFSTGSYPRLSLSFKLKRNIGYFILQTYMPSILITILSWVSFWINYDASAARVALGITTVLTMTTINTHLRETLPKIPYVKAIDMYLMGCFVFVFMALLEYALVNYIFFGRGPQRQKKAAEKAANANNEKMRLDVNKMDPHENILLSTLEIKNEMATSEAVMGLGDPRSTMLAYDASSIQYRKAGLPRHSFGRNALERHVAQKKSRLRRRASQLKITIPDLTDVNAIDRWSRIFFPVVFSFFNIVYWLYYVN
T1 sequence (P18508 39-466): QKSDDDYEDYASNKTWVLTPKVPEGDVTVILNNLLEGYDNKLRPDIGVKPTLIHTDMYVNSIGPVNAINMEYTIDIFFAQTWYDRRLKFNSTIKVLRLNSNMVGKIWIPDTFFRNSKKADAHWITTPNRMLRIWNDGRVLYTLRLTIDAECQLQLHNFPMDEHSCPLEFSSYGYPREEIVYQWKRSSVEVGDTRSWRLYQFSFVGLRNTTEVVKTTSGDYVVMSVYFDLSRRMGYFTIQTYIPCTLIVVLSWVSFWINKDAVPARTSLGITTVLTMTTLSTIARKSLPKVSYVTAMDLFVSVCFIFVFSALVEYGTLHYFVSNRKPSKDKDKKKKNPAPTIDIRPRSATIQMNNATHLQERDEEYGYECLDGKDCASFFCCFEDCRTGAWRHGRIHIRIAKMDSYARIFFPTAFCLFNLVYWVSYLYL
From the text: GABAA receptors are gated channels which, upon binding to BAGA, allow chlorine ions to pass into the cell. In the presence of benzodiazepines. The GABAA receptor will allow GABA to open the channel and let more chlorine ion into the cell if the benzodiazepine is an agonist or less chlorine ions into the cell if the benzodiazepine is an inverse agonist. The amount of chlorine ions that pass through the GABAA receptor can be directly measured using the patch clamp assay. This assay measures the charge flow into and out of an electrode sealed on the surface of a cell. The flow of chlorine ions entering the cell is measured as a function of the current that leaves the cell to maintain electrical equilibrium within the cell as the gate opens. […] The range of sensitivity of the whole cell patch clamp assay is about 1000 pA and allows for the distinguishing of currents of between 2 and 5 pA.
These tests were carried out by patch-clamp electrophysiology of whole cells. The whole-cell configuration of patch clamp technique was used to record the GABA-mediated Cl-currents in human embryonic kidney cells transfected with GABAA receptor subunits. Patch pipettes were made of borosilicate glass with a resistance of 0.5 to 2 megohms. The cell was bathed in the buffer medium containing (mM) NaCl 135, KCl 5, MgCl2 1, CaCl2 1.8 and Hepes 5, pH 7.2. […]

Row | Compound | binding affinity to recombinant receptors [1] | effect on current response of α1β1 GABAA receptors [2] | other results
1 | CCOC(=O)c1ncn2c1CN(C)C(=O)c1cc(F)ccc1-2 [Ro15-1788] | high affinity | – | –
2 | CN1CCc2cc3c(cc2[C@H]1[C@@H]1OC(=O)c2c1ccc1c2OCO1)OCO3 [bicuculline] | – | reversibly blocked | –
3 | picrotoxin | – | reversibly blocked | –
4 | NCCCC(=O)O [GABA, γ-Aminobutyric acid] | – | – | response of cells to drug (Cl- current) [3]: responsive
5 | CCOC(=O)c1ncn2c1CN(C)C(=O)c1cc(N=[N+]=[N-])ccc1-2 [Ro15-4513] | high affinity | – | –
6 | NCc1cc(=O)[nH]o1 [muscimol] | high affinity | – | –
